{
  "source": "patent US6183777A",
  "about": "(priority 1997, dated 2001)",
  "origin": "cited, not measured here",
  "key": {"[1]": {"details": "in vivo"}, "[2]": {"test_system": "Alzheimer's Disease patients", "details": "mild to medium AD"}, "[3]": {"test_system": "cerebral acetyl choline", "details": "in particular in the cerebral cortex"}},
  "data": [
    {"smiles": "Cl.Nc1c2c(nc3ccccc13)CCCC2", "note": "[Tacrine, 1,2,3,4-tetrahydro-9-acridinamine hydrochloride]", "values": [
      {"measurement": "oral bioavailability, variation between individuals", "value": "may significantly vary in different individuals"},
      {"measurement": "adverse effects", "setting": "[1]", "value": "gastro-intestinal side effects, such as nausea, vomiting, diarrhea, dyspepsia and loss of appetite; kinetic ataxia of voluntary muscles and myalgia; sweating and bradycardia induced by overexcitement of vagus nerues"},
      {"measurement": "hepatoxicity", "setting": "[1]", "value": "may cause reversible hepatoxicity"},
      {"measurement": "memory and recognition of patients", "setting": "[2]", "value": "can significantly improve the memory and recognition of patients"},
      {"measurement": "cerebral acetyl choline concentration", "setting": "[3]", "value": "may increase cerebral acetyl choline concentration"}
    ]}
  ]
}
